The conditions of the data set: a range is the spread between reports.

The text below walks through data of a melting point compilation (Tetko et al.).

In the case of `COc1cc(NS(=O)(=O)c2ccc(N)cc2)nc(OC)n1`, the melting point amounted to 204 °C.
In the case of `CCCCCSCCCCC` it was -51.3 to -51 °C; in that of `O=C(O)c1cc(F)cc(F)c1`, 121 to 122 °C; in that of `O=C(O)Cc1c(Cl)cccc1Cl`, 159 to 160 °C.
In the case of `CCCCCCCC#N` it was -46 to -45 °C; in that of `CCCCC(C)CCCC`, -88 to -87.7 °C.
In the case of `CC(C)CCC(C)(C)C` it was -106 °C; in that of `O=C1C=CC(=O)O1`, 52.8 to 54 °C; in that of `OCc1c(F)c(F)c(F)c(F)c1F`, 34 to 37.5 °C.
For `O=[N+]([O-])c1cccs1`, the melting point lay within 44 to 46.5 °C.
In the case of `CC(=O)CCC(C)=O` it was -7 to -5.5 °C; in that of `O=C(O)c1ccc(Cl)c([N+](=O)[O-])c1`, 182 to 183 °C; in that of `Cc1ccc(C)c(Br)c1`, 9 to 10 °C.
In the case of `O=C(O)c1cc(Cl)ccc1O` it was 171 to 174 °C.
In the case of `COc1ccc(OC)cc1` it was 56 to 60 °C; in that of `O=C(O)CCCCc1ccccc1`, 57.5 to 59 °C.
`Cc1cc(O)ccc1O` returned a melting point of 128 to 129 °C.
`OCc1cccc(Oc2ccccc2)c1` gave a melting point of 6 to 10 °C.
In the case of `O=C(O)c1cccc(C(=O)O)c1` it was 342 to 347 °C; in that of `CCCCCCCCCCCCCCCCCCCC(=O)O`, 75 to 75.4 °C.
In the case of `CC(C)(C)OC(=O)CCC(Cl)(Cl)Cl` it was 20 °C; in that of `N#Cc1c[nH]c2ccccc12`, 180 °C.
In the case of `OC1c2ccccc2-c2ccccc21` it was 154 to 156 °C; in that of `CCCCCCCCCCCCCCCCCCO`, 58 to 61 °C.
The compound `CCC(=O)c1ccc(Cl)cc1` had a melting point of 35 to 37.3 °C.
In the case of `O=C(O)C=Cc1ccc(Br)cc1` it was 262 to 263 °C; in that of `O=[N+]([O-])c1ccccc1SSc1ccccc1[N+](=O)[O-]`, 194 to 196 °C.
In the case of `Nc1cc([N+](=O)[O-])cc([N+](=O)[O-])c1` it was 161 to 163 °C; in that of `C#CC(C)(C)O`, 2.6 to 3 °C; in that of `O=C(Cl)c1ccc(Br)cc1`, 40 to 42 °C.
`Clc1cccc(Cl)n1` gave a melting point of 86 to 88 °C.
In the case of `CC(C)c1cc(C(C)C)c(C(C)C)cc1C(C)C` it was 118 to 119 °C; in that of `O=C(Cl)c1ccc(Cl)cc1`, 12 to 16 °C.
In the case of `CCCCC(CC)COC(=O)c1ccccc1C(=O)OCC(CC)CCCC` (configuration not stated) it was -55 to -50 °C; in that of `CCc1cc(C)c(C)cc1C`, -14 to -13.5 °C; in that of `N#Cc1cccc(C#N)c1`, 161 to 162 °C.
`CCC(C)C(=O)OC1CC(C)C=C2C=CC(C)C(CCC3CC(O)CC(=O)O3)C21` (configuration not stated): the melting point is 174 to 175 °C.
In the case of `Nc1ccc([N+](=O)[O-])cc1C(=O)c1ccccc1` it was 163 to 167 °C.
In the case of `CCCC1CCCCC1` it was -95 to -94.9 °C; in that of `Nc1cc([N+](=O)[O-])ccc1O`, 143 to 144 °C.
In the case of `CN(C)C(N)=O` it was 180 to 184 °C; in that of `CCCCCc1ccc(O)cc1`, 23 to 24 °C; in that of `c1ccc2c(c1)Cc1ccccc1C2`, 108 to 111 °C.
For `ClCc1ccccc1Cl`, the melting point was -17 to -13 °C.
For the compound `C=CCC(C)CC` (configuration not stated), the melting point was -142 to -141 °C.
In the case of `C#CCCCCCCCCCCCCCCCC` it was 22.5 to 27 °C; in that of `CCCOC(=O)c1ccc(N)cc1`, 74 to 75 °C; in that of `COc1ccccc1CC#N`, 66 to 69.8 °C.
On to `Oc1c(Cl)cc(Cl)c2cccnc12`, for which the melting point was 180 to 181 °C.
In the case of `O=[N+]([O-])c1c(O)cccc1O` it was 82 to 83 °C; in that of `CCOc1ccccc1OCC`, 43 to 44 °C; in that of `O=C(O)Cc1ccc(F)cc1`, 83 to 86 °C.
In the case of `C=C(C)CC(C)C` it was -124 °C; in that of `CCCCCCCCCCCCBr`, -10 to -9.5 °C.
In the case of `O=[N+]([O-])c1cc(F)ccc1F` it was -12 to -11.7 °C.
With `O=C(Cl)c1cccc(C(=O)Cl)c1`, the melting point was 43.5 to 44 °C.
The compound `CC1(C)COC(=O)C1O` (configuration not stated) came in with a melting point of 90 to 92 °C.
In the case of `Cc1cc(NS(=O)(=O)c2ccc(N)cc2)no1` it was 167 to 172 °C; in that of `ClCBr`, -88 to -87.9 °C.
`O=C(O)c1c(Cl)cccc1Cl` yielded a melting point of 143 to 144 °C.
In the case of `COP(=S)(OC)SCn1nnc2ccccc2c1=O` it was 72 to 73 °C.
In the case of `c1ccc2c(c1)ccc1cccnc12` it was 50 to 52 °C; in that of `O=S=O`, -73 to -72 °C.
In the case of `O=C(CCC(=O)c1ccccc1)c1ccccc1` it was 144 to 146 °C.
Turning to `CCCCCCCI`, the melting point was -48.2 to -48 °C.
The compound `CC(=O)c1cccc(C(C)=O)c1` had a melting point of 32 to 36 °C.
In the case of `O=c1cc(CO)occ1O` it was 154 °C; in that of `COc1cc(OC)cc(OC)c1`, 52 to 54.5 °C; in that of `NC(=O)c1ccc([N+](=O)[O-])cc1`, 200 to 202 °C.
`S=C=Nc1cccc2ccccc12` had a melting point of 56 to 58 °C.
In the case of `Fc1cccc2ccccc12` it was -13 to -9 °C; in that of `CCC/C=C/C(=O)O`, 33 to 36.5 °C; in that of `CC1CCCCC1`, -127 to -126 °C.
In the case of `C/C=C/CC(C)C` it was -124 °C; in that of `Oc1ccc2cccc(O)c2c1`, 180 to 182 °C.
In the case of `CC1(C)C(=O)NC(=O)N1CO` it was 100 to 105 °C; in that of `CCOC(=O)c1ccc(C(=O)OCC)cc1`, 44 to 45 °C.
Turning to `N#Cc1ccc(N)cc1`, the melting point was in the range of 84 to 85 °C.
In the case of `C=C[Si]1(C)O[Si](C)(C=C)O[Si](C)(C=C)O[Si](C)(C=C)O1` (configuration not stated) it was -43.5 to -43 °C; in that of `O=[N+]([O-])c1ccccc1Br`, 42 to 43 °C; in that of `BrCCBr`, 9.9 to 10 °C.
In the case of `CCC(=O)c1cc(F)c(O)c(F)c1` it was 127 to 130 °C; in that of `N#Cc1ccc2ccccc2c1`, 65 to 66 °C; in that of `COc1cccc(OC)c1O`, 54 to 56.5 °C.
In the case of `CC(=O)CC(C)C` it was -84 to -80 °C; in that of `N#CCCCl`, -51 to -50 °C.
In the case of `C1=Cc2ccccc2C1`, the melting point is -2 to -1.8 °C.
For `Oc1ccccc1C(F)(F)F`, the melting point was 45.5 to 46 °C.
In the case of `ClC1C(Cl)C(Cl)C(Cl)C(Cl)C1Cl` (configuration not stated) it was 159 to 160 °C; in that of `NC(=O)c1ccc([N+](=O)[O-])cc1Cl`, 170 to 172 °C.
In the case of `CCCCCCCCCCCCCCCCCO` it was 53.8 to 58 °C; in that of `BrCc1ccc(CBr)cc1`, 142 to 144 °C.
In the case of `Cc1ccc(C)n1-c1ccccc1` it was 49.5 to 50 °C; in that of `Nc1ccc2ncsc2c1`, 87 to 88 °C; in that of `Nc1c(Cl)c(Cl)c(Cl)c(Cl)c1Cl`, 232 to 235 °C.
Regarding `C=CCC(=O)O`, the melting point was -39 to -35 °C.
In the case of `N#CC(C#N)=C(C#N)C#N` it was 198 to 199 °C; in that of `Sc1ccccn1`, 127 to 129 °C.
In the case of `CC(=O)Nc1ccc([N+](=O)[O-])cc1` it was 215 to 216 °C; in that of `O=Cc1cc(O)ccc1O`, 98 to 99 °C.
In the case of `O=C1CC(c2ccc(O)cc2)Oc2cc(O)cc(O)c21` (configuration not stated) it was 250 to 251 °C.
For `C1CCCC1`, the melting point was -94 to -93.8 °C.
In the case of `Cc1ccc(C(=O)c2ccc(C)cc2)cc1` it was 94 to 96.5 °C.
In the case of `O=C(O)Cc1ccccc1O` it was 146 to 149 °C; in that of `CNC1=Nc2ccc(Cl)cc2C(c2ccccc2)=[N+]([O-])C1`, 236 °C; in that of `C1COCCN1`, -5 to -4.8 °C.
Regarding `CCOC(=O)Cc1c[nH]c2ccccc12`, the melting point was 43 to 44.5 °C.
In the case of `CCCCCCCCCCCCCCCC(=O)OCC(COC(=O)CCCCCCCCCCCCCCC)OC(=O)CCCCCCCCCCCCCCC` it was 62 to 66.5 °C; in that of `Clc1cccc(Cl)c1Cl`, 52.6 to 55 °C.
In the case of `CCc1ccc(C)cc1C` it was -63 to -62.9 °C; in that of `NCCNCCN`, -40 to -35 °C; in that of `OCc1cc(Cl)cc(Cl)c1`, 78 to 80.5 °C.
In the case of `O=Cc1cc(Cl)ccc1Cl` it was 56 to 58 °C; in that of `c1ccc2nccnc2c1`, 28 to 30 °C.
With `N#CCCc1ccccc1`, the melting point is -2 to -1 °C.
In the case of `COC(=O)OC` it was 1 to 4 °C; in that of `CCC(=O)CC`, -40 to -39 °C.
In the case of `COc1cc(C=CCO)ccc1O` it was 74 to 76 °C.
In the case of `O=[N+]([O-])c1cccc(-c2ccccc2)c1` it was 59 to 62 °C.
`NCCc1c[nH]c2ccccc12`: the melting point was in the range of 114 to 118 °C.
In the case of `CC1CC1(C)C` (configuration not stated) it was -138 °C; in that of `OC[C@@H](O)[C@@H](O)[C@@H](O)CO`, 102 to 103 °C.
In the case of `NC(=O)c1cccc(Br)c1` it was 155 °C; in that of `Cc1ccc2sc(C)nc2c1`, 38 to 40 °C.
In the case of `C[C@H](O)CN` it was 21.5 to 25 °C; in that of `COC(=O)c1ccccc1N`, 24 to 24.5 °C.
In the case of `CC(=O)N1CCOCC1`, the melting point fell in the range of 10 to 14.5 °C.
In the case of `O=C1c2ccccc2C(=O)c2ccccc21` it was 284 to 286 °C; in that of `CC(Br)CBr` (configuration not stated), -55.5 to -55 °C; in that of `C=Cc1ccccc1Br`, -53 to -52.5 °C.
In the case of `O=C(OC(=O)c1ccccc1)c1ccccc1` it was 42 to 42.5 °C.
In the case of `NCCN1CCOCC1` it was 24 to 25.6 °C.
Regarding `C#CC(C)(C)C`, the melting point was -78.2 to -78 °C.
In the case of `O=C(O)c1cc(Br)ccc1Br` it was 155 to 157 °C.
In the case of `CCCCCCCCCC(C)=O` it was 12 to 15 °C; in that of `Nc1c(Cl)cc([N+](=O)[O-])cc1Cl`, 189 to 191 °C.
In the case of `CC(C)(Cl)Cl` it was -34 to -33.8 °C.

What is called melting point is the temperature, or range, at which the solid turns liquid.
